Test results published in PMC10666548, “Identification of the bacterial metabolite aerugine as potential trigger of human dopaminergic neurodegeneration” (Environment international, 2023).
“Also recorded” adds a separate entry of the source.

Assays:
[1] = Cytotoxicity to immature (d2) LUHMES cells, calcein-AM & H-33342 imaging; format: cell-based; conditions: human, immature LUHMES d2, 24 h exposure, read-out: EC50 (half-maximal cytotoxic potency), cell viability
Experimental: The assays were performed as described previously ([Hoelting et al., 2016]; [Klima et al., 2021]; [Krug et al., 2013]). In brief, 30′000 cells per well were seeded on d2 (LUHMES) / d0 (peripheral neurons, Cortex.4U, CNS.4U) in their respective differentiation media into standard pre-coated 96-well plates. They were incubated for 1 h at 37 °C and 5% CO2 before treatment. 24 h after treatment the Calcein/Hoechst readout was performed.
Neurite area (NA) and viability (V) were assessed as described previously ([Stiegler et al., 2011]). In brief, cells were stained with 1 μM calcein-AM and 1 μg/ml H-33342 for 30 min at 37 °C and 5% CO2. Image acquisition was performed using an Array-Scan VTI HCS Reader (Cellomics, PA, USA) equipped with a Hamamatsu ORCA-ER camera. 10 fields per well were imaged with 2 channels at 20x magnification (2×2 pixel binning). […]
Nuclei were identified in channel 1 depending on intensity, area, size and shape. […] The NA was automatically calculated by excluding the VCSAs from the VCSs. […]
Fig. 3. […] The cell viability was assessed 24 h later by calcein-AM & H-33342 staining and high content imaging. […] The overall cell viability was assessed by measuring resazurin reduction in technical triplicates. […] The cell viability was assessed 24 h later by calcein-AM & H-33342 staining and high content imaging. […]

[2] = test system: Enterococcus faecalis; assay: Bacterial growth assay; format: cell-based; conditions: 20 μM, log growth phase
Experimental: Enterococcus faecalis was grown in BHI medium (BD Difco Brain Heart Infusion) with 36 g/l supplemented with 20 μg/ml hemin, 20 μg/ml NAD and 15 g/l agar for plates. Enterococcus faecalis strain 438 originates from eye isolate. Neisseria gonorrhoeae strain MS11 was gifted by T. F. Meyer (Max-Planck-Institute for Infection Biology, Berlin, Germany) ([Edwards et al., 1984]).
Bacteria were grown as described above on solid medium. Prior to substance exposure, bacteria were pre-cultured in liquid medium for at least 2 h. Optical density was determined and a volume equal to an OD550 of 0.2 for Neisseria gonorrhoeae MS11 (equates a final OD550 of 0.04) and an OD600 of 0.2 for Enterococcus faecalis (equates a final OD600 of 0.04) was inoculated into 5 ml of the respective liquid medium. Compound was added at the indicated amounts. Dimethyl sulfoxide (DMSO) level was adjusted to 1 % of final concentration including DMSO control. Samples were incubated for either 10.5 h, until they reached a stationary phase (three measured values in stationary phase) or until they reached an OD of 2.5. Optical density was determined every 0.5 h at OD550 for Neisseria gonorrhoeae MS11 and at OD600 for Enterococcus faecalis. ([Szamosvári et al., 2019]).

[3] = test system: C. elegans strains BY200 and Punc-25; assay: C. elegans lethality analysis (eight day survival test); format: in vivo, Caenorhabditis elegans; conditions: L4 larval stage, 8, 40 and 100 μM, up to 8 days
Experimental: The strain BY200 Pdat-1::gfp (vtIs1), dat-1::GFP(vtls1) was kindly provided by the Blakely laboratory, Vanderbilt University Medical Center and the strain Punc-25:GFP was obtained from the Caenorhabditis Genetics Center (CGC, University of Minnesota, Minneapolis, MN, USA). The worms were maintained in nematode growth medium (NGM) plates that contain: 3 g/l NaCl, 17 g/l agar, 2.5 g/l peptone, 1 mM CaCl2, 5 mg/l cholesterol, 1 mM MgSO4, 25 mM potassium phosphate buffer (pH 6.0) with 1.25 ml nystatin and 50 mg/l streptomycin sulfate) and Escherichia coli (E. coli) OP50 strain was used as food ([Brenner, 1974]). Synchronization of worms was carried out using extraction solution (0.2% NaOCl, 0.5 M NaOH, in distilled water). The first larval stage (L1) population were obtained by isolating eggs with a 30% sucrose gradient, washed with sterile water, and resuspended in M9 buffer (42 mM Na2HPO4, 22 mM KH2PO4, 8.5 mM NaCl, and 1 mM MgSO4) ([Sulston and Hodgkin, 1998]).
For the lethality analysis, 40 to 60 BY200 and P unc-25 worms at L4 larval stage were exposed to vehicle or aerugine (8, 40 and 100 μM) in OP50-seeded NGM plates from day 0 until day 8. […] Moreover, worms were transferred to fresh plates for the first three days of treatment, which coincide with the egg laying days to avoid mixing of different generations. […]

[4] = test system: 5HT2B receptor; set-up: method as in Lin et al., 2017; conditions: ref Lin et al., 2017; cited from earlier work

In the case of `OCC1CSC(c2ccccc2O)=N1` (stereo not shown) [aerugine, 2-[4-(hydroxymethyl)-4,5-dihydro-1,3-thiazol-2-yl]phenol], the EC50 at 24 h [1] is reported as 9.3 ± 1.1 µM, the viability or growth [2] is reported as “not affected in viability or growth” and the “general survival of worms” value [3] is reported as “neither triggered death during the first 2 days; also recorded: not affected”. The “displacement of radioactive lysergic acid diethylamide” value [4] was “displaced radioactive lysergic acid diethylamide at low μM concentrations”.
